Results reported in ChEMBL document CHEMBL5550152, “Design, synthesis and evaluation of novel prostate-specific membrane antigen-targeted aryl [18F]fluorosulfate PET tracers” (Bioorg Med Chem, 2024).

Experiments:
Settings in all cases: in vivo
[1] = Drug distribution in nude mouse liver xenografted with human 22Rv1 cells at 8.1 MBq,iv measured after 2 hrs; format: ADME, tissue-based, CWR22R
[2] = Drug distribution in nude mouse kidney xenografted with human 22Rv1 cells at 8.1 MBq,iv measured after 4 hrs; format: ADME, tissue-based, CWR22R
[3] = Drug distribution in nude mouse blood xenografted with human 22Rv1 cells at 8.1 MBq,iv measured after 1 hr; format: ADME, tissue-based, CWR22R
[4] = Drug distribution in nude mouse liver xenografted with human 22Rv1 cells at 8.1 MBq,iv measured after 2 hrs in presence of 2-PMPA; format: ADME, tissue-based, CWR22R
[5] = Drug distribution in nude mouse bone xenografted with human 22Rv1 cells at 8.1 MBq,iv measured after 4 hrs; format: ADME, tissue-based, Bone element, CWR22R
[6] = Drug distribution in nude mouse lung xenografted with human 22Rv1 cells at 8.1 MBq,iv measured after 2 hrs in presence of 2-PMPA; format: ADME, tissue-based, CWR22R
[7] = Drug distribution in nude mouse lung xenografted with human 22Rv1 cells at 8.1 MBq,iv measured after 1 hr; format: ADME, tissue-based, CWR22R
[8] = Drug distribution in nude mouse gall bladder xenografted with human 22Rv1 cells at 8.1 MBq,iv measured after 2 hrs in presence of 2-PMPA; format: ADME, tissue-based, CWR22R
[9] = Drug distribution in nude mouse blood xenografted with human 22Rv1 cells at 8.1 MBq,iv measured after 2 hrs; format: ADME, tissue-based, CWR22R
[10] = Drug distribution in nude mouse gall bladder xenografted with human 22Rv1 cells at 8.1 MBq,iv measured after 1 hr; format: ADME, tissue-based, CWR22R
[11] = Drug distribution in nude mouse spleen xenografted with human 22Rv1 cells at 8.1 MBq,iv measured after 2 hrs; format: ADME, tissue-based, CWR22R
[12] = Drug uptake in mouse tumor xenografted with human 22Rv1 cells at 7.4 MBq, iv pretreated with 2-PMPA measured after 2 hrs by PET imaging analysis relative to control; format: ADME, organism-based, Neoplasm, CWR22R
[13] = Drug uptake in mouse tumor xenografted with human 22Rv1 cells at 7.4 MBq, iv pretreated with 2-PMPA measured after 4 hrs by PET imaging analysis relative to control; format: ADME, organism-based, Neoplasm, CWR22R
[14] = Drug distribution in nude mouse brain xenografted with human 22Rv1 cells at 8.1 MBq,iv measured after 1 hr; format: ADME, tissue-based, CWR22R
[15] = Drug uptake in mouse tumor xenografted with human 22Rv1 cells at 7.4 MBq, iv measured after 2 hrs by PET imaging analysis relative to control; format: ADME, organism-based, Neoplasm, CWR22R
[16] = Drug distribution in nude mouse large intestine xenografted with human 22Rv1 cells at 8.1 MBq,iv measured after 1 hr; format: ADME, tissue-based, CWR22R
[17] = Drug distribution in nude mouse tumor xenografted with human 22Rv1 cells at 8.1 MBq,iv measured after 2 hrs; format: ADME, tissue-based, Neoplasm, CWR22R
[18] = Drug distribution in nude mouse muscle tissue xenografted with human 22Rv1 cells at 8.1 MBq,iv measured after 2 hrs; format: ADME, tissue-based, CWR22R
[19] = Drug distribution in nude mouse spleen xenografted with human 22Rv1 cells at 8.1 MBq,iv measured after 2 hrs in presence of 2-PMPA; format: ADME, tissue-based, CWR22R
[20] = Drug distribution in nude mouse heart xenografted with human 22Rv1 cells at 8.1 MBq,iv measured after 4 hrs; format: ADME, tissue-based, CWR22R
[21] = Drug distribution in nude mouse tumor xenografted with human 22Rv1 cells at 8.1 MBq,iv measured after 2 hrs in presence of 2-PMPA; format: ADME, tissue-based, Neoplasm, CWR22R
[22] = Drug distribution in nude mouse brain xenografted with human 22Rv1 cells at 8.1 MBq,iv measured after 2 hrs in presence of 2-PMPA; format: ADME, tissue-based, CWR22R
[23] = Drug distribution in nude mouse small intestine xenografted with human 22Rv1 cells at 8.1 MBq,iv measured after 2 hrs; format: ADME, tissue-based, CWR22R
[24] = Drug distribution in nude mouse kidney xenografted with human 22Rv1 cells at 8.1 MBq,iv measured after 2 hrs; format: ADME, tissue-based, CWR22R
[25] = Drug distribution in nude mouse lung xenografted with human 22Rv1 cells at 8.1 MBq,iv measured after 2 hrs; format: ADME, tissue-based, CWR22R
[26] = Drug distribution in nude mouse gall bladder xenografted with human 22Rv1 cells at 8.1 MBq,iv measured after 4 hrs; format: ADME, tissue-based, CWR22R
[27] = Drug distribution in nude mouse brain xenografted with human 22Rv1 cells at 8.1 MBq,iv measured after 4 hrs; format: ADME, tissue-based, CWR22R
[28] = Drug distribution in nude mouse spleen xenografted with human 22Rv1 cells at 8.1 MBq,iv measured after 4 hrs; format: ADME, tissue-based, CWR22R
[29] = Drug distribution in nude mouse bone xenografted with human 22Rv1 cells at 8.1 MBq,iv measured after 1 hr; format: ADME, tissue-based, Bone element, CWR22R
[30] = Drug distribution in nude mouse heart xenografted with human 22Rv1 cells at 8.1 MBq,iv measured after 2 hrs; format: ADME, tissue-based, CWR22R
[31] = Drug distribution in nude mouse blood xenografted with human 22Rv1 cells at 8.1 MBq,iv measured after 4 hrs; format: ADME, tissue-based, CWR22R
[32] = Drug distribution in nude mouse tumor xenografted with human 22Rv1 cells at 8.1 MBq,iv measured after 4 hrs; format: ADME, tissue-based, Neoplasm, CWR22R

## COc1cc(C(=O)N[C@@H](CCC(=O)O)C(=O)N[C@@H](CCC(=O)O)C(=O)NCc2ccc(C(=O)N[C@@H](Cc3ccc4ccccc4c3)C(=O)NCCCC[C@H](NC(=O)N[C@@H](CCC(=O)O)C(=O)O)C(=O)O)cc2)ccc1OS(=O)(=O)[18F]
[1]
  Drug uptake: 1.79 % ID/g
[2]
  Drug uptake: 19.91 % ID/g
[3]
  Drug uptake: 6.43 % ID/g
[4]
  Drug uptake: 2.4 % ID/g
[5]
  Drug uptake: 3.76 % ID/g
[6]
  Drug uptake: 1.58 % ID/g
[7]
  Drug uptake: 3.18 % ID/g
[8]
  Drug uptake: 4.39 % ID/g
[9]
  Drug uptake: 2.95 % ID/g
[10]
  Drug uptake: 3.69 % ID/g
[11]
  Drug uptake: 1.23 % ID/g
[12]
  Drug uptake: 1.37 % ID/g
[13]
  Drug uptake: 1.4 % ID/g
[14]
  Drug uptake: 0.15 % ID/g
[15]
  Drug uptake: 2.85 % ID/g
[16]
  Drug uptake: 2.21 % ID/g
[17]
  Drug uptake: 4.54 % ID/g
[18]
  Drug uptake: 0.45 % ID/g
[19]
  Drug uptake: 0.83 % ID/g
[20]
  Drug uptake: 0.31 % ID/g
[21]
  Drug uptake: 1.82 % ID/g
[22]
  Drug uptake: 0.08 % ID/g
[23]
  Drug uptake: 1.91 % ID/g
[24]
  Drug uptake: 23.42 % ID/g
[25]
  Drug uptake: 1.28 % ID/g
[26]
  Drug uptake: 1.39 % ID/g
[27]
  Drug uptake: 0.02 % ID/g
[28]
  Drug uptake: 0.97 % ID/g
[29]
  Drug uptake: 2.11 % ID/g
[30]
  Drug uptake: 0.97 % ID/g
[31]
  Drug uptake: 0.8 % ID/g
[32]
  Drug uptake: 4.47 % ID/g
